What was measured:
mutant forms of Bcr-Abl = conditions: 33 mutant forms evaluated
Thr315lle Bcr-Abl = conditions: only mutant of the 33 not inhibited

## Cc1cn(-c2cc(NC(=O)c3ccc(C)c(Nc4nccc(-c5cccnc5)n4)c3)cc(C(F)(F)F)c2)cn1 [AMN107, 4-Methyl-3-[[4-(3-pyridinyl)-2-pyrimidinyl]amino]-N-[5-(4-methyl-1H-imidazol-1-yl)-3-(trifluoromethyl)phenyl] benzamide]
Mutant forms of Bcr-Abl
  mutant forms of Bcr-Abl inhibited, out of those currently evaluated: 32 of 33
Thr315lle Bcr-Abl
  sensitivity of the Thr315lle mutant: resistant

From patent publication US20090286803A1, “COMBINATION COMPRISING A) A PYRIMIDYLAMINOBENZAMIDE COMPOUND, AND B) A THR315LLE KINASE INHIBITOR” (priority 2006, published 2009)
